Data from patent US10632149B2, “Drug based on maghemite for simultaneous reduction of gastrointestinal sodium resorption and phosphate resorption” (CHARITÉ-UNIVERSITAETSMEDIZIN BERLIN, priority 2014, dated 2020).

Test system: healthy rats
Conditions: rat, in vivo
Description: Male rats of the breed Sprague Dawley from Charles River were used at the beginning of the experiment with weight of 200 g (n=8) per group listed below. […] Then for another 4 weeks (week 2-5), the feed mentioned above ad libitum with active substance additive. On the last day of each experiment week, the animals were kept individually in a metabolic cage for 24 hours (day 6 to day 7). Feces and urine were collected. Blood was obtained only on the last collection day. Blood and urine samples were examined by Synlab GmbH.
The groups received as follows from week 2-5 additives per 100 g feed Group A control—no additives
Group B adjuvants—addition of 0.2 g of mannitol and each 0.9 g of inulin and gum arabic
Group D Velphoro®—based on iron as an additive to the feed 250 mg of iron
Group E Fosrenol®—based on lanthanum as an additive to the feed 250 mg lanthanum
Group F Renvela®—based on Sevelamer carbonate 500 mg

- Feces excretion 24 hours Weight: 17.1 ± 6.2 g
- Urine volumes 24 hours: 16.1 ± 3.6 mL
Substance: sucroferric oxyhydroxide [Velphoro®]
